From patent publication US20260234115A1, “LIPID COMPOUNDS, COMPOSITIONS, AND USES THEREOF” (Liberate Bio, Inc., priority 2023, published 2026)
Marks after values point to notes of the source that are not given here.

The molecules below were run on mouse organs (assay: In vivo activity screening in mice: organ mean total flux (p/s) of luciferase activity after injection of F2 LNP pools (Table 6, FIG. 7A-7C)). Settings: Mouse 12, dose 0.5 mg/kg, luciferase mRNA.
Procedure, shortened: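 Luciferase output per organ is reported as mean total flux (p/s) from IVIS regions of interest. Organs were collected from perfused C57BL/6J mice and imaged 10-15 min after s.c. D-luciferin, 4-6 h after i.v. dosing. Dosing was 0.25-3 mg/kg luciferase mRNA in F2 LNP pools.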

Structure (SMILES)	Organ Mean Total Flux Femur	Organ Mean Total Flux Heart	Organ Mean Total Flux Kidney	Organ Mean Total Flux Liver	Organ Mean Total Flux Lung	Organ Mean Total Flux Muscle	Organ Mean Total Flux Pancreas	Organ Mean Total Flux Spleen
CCCCC/C=C\CCOC(=O)CCCCC(=O)OCC(COC(=O)CCCCC(=O)OCC/C=C\CCCCC)(COC(=O)CCC(CCCCCC)OC(=O)NCCN1CCCC1)COC(=O)C12CCC(CC1)CC2 (centres unmarked) [Compound 67, O6-[2-(bicyclo[2.2.2]octane-1-carbonyloxymethyl)-2-[[6-[(Z)-non-3-enoxy]-6-oxo-hexanoyl]-oxymethyl]-3-[4-(2-pyrrolidin-1-ylethylcarbamoyloxy)decanoyloxy]propyl]O1-[(Z)-non-3-enyl]hexanedioate]	10.8 p/s (×10^6)	0.4 p/s (×10^6)	1.9 p/s (×10^6)	220.0 p/s (×10^6)	11.8 p/s (×10^6)	22.8 p/s (×10^6)	10.4 p/s (×10^6)	50.1 p/s (×10^6)
CCCCC/C=C\CCOC(=O)CCCCC(=O)OCC(COC(=O)CCCCC(=O)OCC/C=C\CCCCC)(COC(=O)CCC(CCCCCC)OC(=O)NCCN1CCCC1)COC(=O)CC1CCC1 (centres unmarked) [Compound 73, O6-[2-[(2-cyclobutylacetyl)oxymethyl]-2-[[6-[(Z)-non-3-enoxy]-6-oxo-hexanoyl]oxymethyl]-3-[4-(2-pyrrolidin-1-ylethylcarbamoyloxy)decanoyloxy]propyl]O1-[(Z)-non-3-enyl]hexanedioate]	7.3 p/s (×10^6)	0.5 p/s (×10^6)	1.7 p/s (×10^6)	127.7 p/s (×10^6)	10.6 p/s (×10^6)	6.8 p/s (×10^6)	15.7 p/s (×10^6)	49.2 p/s (×10^6)
CCCCC/C=C\CCOC(=O)CCCCC(=O)OCC(COC(=O)CCCCC(=O)OCC/C=C\CCCCC)(COC(=O)CCC(CCCCCC)OC(=O)NCCN1CCCC1)COC(=O)C1CC2C(C1)C2(F)F (centres unmarked) [Compound 81, O6-[2-[(6,6-difluorobicyclo[3.1.0]hexane-3-carbonyl)oxymethyl]-2-[[6-[(Z)-non-3-enoxy]-6-oxo-hexanoyl]oxymethyl]-3-[4-(2-pyrrolidin-1-ylethylcarbamoyloxy)decanoyloxy]propyl]O1-[(Z)-non-3-enyl]hexanedioate]	11.1 p/s (×10^6)	1.2 p/s (×10^6)	4.0 p/s (×10^6)	727.0 p/s (×10^6)	12.1 p/s (×10^6)	5.7 p/s (×10^6)	12.9 p/s (×10^6)	115.9 p/s (×10^6)
CCCCC/C=C\CCOC(=O)CCCCC(=O)OCC(COC(=O)CCCCC(=O)OCC/C=C\CCCCC)(COC(=O)CCC(CCCCCC)OC(=O)NCCN1CCCC1)COC(=O)CC12CC(C1)C2 (centres unmarked) [Compound 91, O6-[2-[[2-(1-bicyclo[1.1.1]pentanyl)acetyl]oxymethyl]-2-[[6-[(Z)-non-3-enoxy]-6-oxo-hexanoyl]oxymethyl]-3-[4-(2-pyrrolidin-1ylethylcarbamoyloxy)decanoyloxy]propyl]O1-[(Z)-non-3-enyl]hexanedioate]	15.8 p/s (×10^6)	2.6 p/s (×10^6)	12.3 p/s (×10^6)	404.7 p/s (×10^6)	26.3 p/s (×10^6)	7.8 p/s (×10^6)	76.4 p/s (×10^6)	123.6 p/s (×10^6)
CCCCC/C=C\CCOC(=O)CCCCC(=O)OCC(COC(=O)CCCCC(=O)OCC/C=C\CCCCC)(COC(=O)CCC(CCCCCC)OC(=O)NCCN1CCCC1)COC(=O)C12CCC(F)(CC1)CC2 (centres unmarked) [Compound 93, O6-[2-[(4-fluorobicyclo[2.2.2]octane-1-carbonyl)oxymethyl]-2-[[6-[(Z)-non-3-enoxy]-6-oxo-hexanoyl]oxymethyl]-3-[4-(2-pyrrolidin-1-ylethylcarbamoyloxy)decanoyloxy]propyl]O1-[(Z)-non-3-enyl]hexanedioate]	27.8 p/s (×10^6)	1.3 p/s (×10^6)	3.5 p/s (×10^6)	528.7 p/s (×10^6)	34.3 p/s (×10^6)	11.0 p/s (×10^6)	25.8 p/s (×10^6)	136.6 p/s (×10^6)
CCCCC/C=C\CCOC(=O)CCCCC(=O)OCC(COC(=O)CCCCC(=O)OCC/C=C\CCCCC)(COC(=O)CCC(CCCCCC)OC(=O)NCCN1CCCC1)COC(=O)C1(C2CCCCC2)CCCCC1 (centres unmarked) [Compound 96, O6-[2-[(1-cyclohexylcyclohexanecarbonyl)oxymethyl]-2-[[6-[(Z)-non-3-enoxy]-6-oxo-hexanoyl]oxymethyl]-3-[4-(2-pyrrolidin-1-ylethylcarbamoyl-oxy)decanoyloxy]propyl]O1-[(Z)-non-3-enyl]hexanedioate]	3.4 p/s (×10^6)	0.4 p/s (×10^6)	0.9 p/s (×10^6)	213.0 p/s (×10^6)	9.0 p/s (×10^6)	11.9 p/s (×10^6)	0.9 p/s (×10^6)	6.6 p/s (×10^6)
CCCCC/C=C\CCOC(=O)CCCCC(=O)OCC(COC(=O)CCCCC(=O)OCC/C=C\CCCCC)(COC(=O)CCC(CCCCCC)OC(=O)NCCN1CCCC1)COC(=O)[C@]12CC[C@H](CC1)C2 (some centres unmarked) [Compound 99, O6-[2-[[6-[(Z)-non-3-enoxy]-6-oxo-hexanoyl]oxymethyl]-2-(norbornane-1-carbonyloxymethyl)-3-[4-(2-pyrrolidin-1-ylethylcarbamoyloxy)decanoyloxy]propyl]O1-[(Z)-non-3-enyl]hexanedioate]	7.2 p/s (×10^6)	0.4 p/s (×10^6)	1.2 p/s (×10^6)	177.0 p/s (×10^6)	31.4 p/s (×10^6)	6.5 p/s (×10^6)	4.3 p/s (×10^6)	47.5 p/s (×10^6)
CCCCC/C=C\CCOC(=O)CCCCC(=O)OCC(COC(=O)CCCCC(=O)OCC/C=C\CCCCC)(COC(=O)CCC(CCCCCC)OC(=O)NCCN1CCCC1)COC(=O)C1CC2(C1)CC(F)(F)C2 (centres unmarked) [Compound 100, O6-[2-[(2,2-difluorospiro[3.3]heptane-6-carbonyl)oxymethyl]-2-[[6-[(Z)-non-3-enoxy]-6-oxo-hexanoyl]oxymethyl]-3-[4-(2-pyrrolidin-1-ylethylcarbamoyloxy)decanoyloxy]propyl]O1-[(Z)-non-3-enyl]hexanedioate]	13.8 p/s (×10^6)	0.7 p/s (×10^6)	2.3 p/s (×10^6)	273.0 p/s (×10^6)	37.8 p/s (×10^6)	4.0 p/s (×10^6)	25.2 p/s (×10^6)	163.7 p/s (×10^6)
CCCCC/C=C\CCOC(=O)CCCCC(=O)OCC(COC(=O)CCCCC(=O)OCC/C=C\CCCCC)(COC(=O)CCC(CCCCCC)OC(=O)NCCN1CCCC1)COC(=O)C12CCCC1C2 (centres unmarked) [Compound 101, O6-[2-(bicyclo[3.1.0]hexane-1-carbonyloxymethyl)-2-[[6-[(Z)-non-3-enoxy]-6-oxo-hexanoyl]oxymethyl]-3-[4-(2-pyrrolidin-1-ylethylcarbamoyloxy)decanoyloxy]propyl]O1-[(Z)-non-3-enyl]hexanedioate]	9.7 p/s (×10^6)	0.8 p/s (×10^6)	0.9 p/s (×10^6)	306.7 p/s (×10^6)	26.5 p/s (×10^6)	5.2 p/s (×10^6)	14.3 p/s (×10^6)	53.2 p/s (×10^6)

Same assay, conditions: Mouse 13, dose 0.5 mg/kg, luciferase mRNA

Structure (SMILES)	Organ Mean Total Flux Femur	Organ Mean Total Flux Heart	Organ Mean Total Flux Kidney	Organ Mean Total Flux Liver	Organ Mean Total Flux Lung	Organ Mean Total Flux Muscle	Organ Mean Total Flux Pancreas	Organ Mean Total Flux Spleen
CCCCC/C=C\CCOC(=O)CCCCC(=O)OCC(COC(=O)CCCCC(=O)OCC/C=C\CCCCC)(COC(=O)CCC(CCCCCC)OC(=O)NCCN1CCCC1)COC(=O)C1CCC2C(C1)C2(F)F (centres unmarked) [Compound 103, O6-[2-[(7,7-difluoronorcarane-3-carbonyl)oxymethyl]-2-[[6-[(Z)-non-3-enoxy]-6-oxo-hexanoyl]oxymethyl]-3-[4-(2-pyrrolidin-1ylethylcarbamoyloxy)decanoyloxy]propyl]O1-[(Z)-non-3-enyl]hexanedioate]	26.0 p/s (×10^6)	0.8 p/s (×10^6)	2.4 p/s (×10^6)	444.3 p/s (×10^6)	16.0 p/s (×10^6)	4.5 p/s (×10^6)	13.5 p/s (×10^6)	161.3 p/s (×10^6)
